Assay results: BindingDB's records for patent US9556181 (Bayer Pharma Aktiengesellschaft, 2017)

Molecular target: T1, MAP kinase-interacting serine/threonine-protein kinase 1 [T344D] (Homo sapiens, UniProt Q9BUB5, T344D)
T1 construct: gene MKNK1
Assay: MKNK1 Kinase High ATP Assay
Conditions: pH 7.5
From the text: TBDA recombinant fusion protein of Glutathione-S-Transferase (GST, N-terminally) and human full-length MKNK1 (amino acids 1-424 and T344D of accession number BAA 19885.1), expressed in insect cells using baculovirus expression system and purified via glutathione sepharose affinity chromatography, was purchased from Carna Biosciences (product no 02-145) and used as enzyme. As substrate for the kinase reaction the biotinylated peptide biotin-Ahx-IKKRKLTRRKSLKG (C-terminus in amide form) was used, which can be purchased e.g. from the company Biosyntan (Berlin-Buch, Germany).For the assay 50 nL of a 100 fold concentrated solution of the test compound in DMSO was pipetted into a black low volume 384 well microtiter plate (Greiner Bio-One, Frickenhausen, Germany), 2 μL of a solution of MKNK1 in aqueous assay buffer [50 mM HEPES pH 7.5, 5 mM MgCl2, 1.0 mM dithiothreitol, 0.005% (v/v) Nonidet-P40 (Sigma)] was added and the mixture was incubated for 15 min at 22° C. to allow pre-binding of the test compounds to the enzyme before the start of the kinase reaction. Then the kinase reaction was started by the addition of 3 μL of a solution of adenosine-tri-phosphate (ATP, 3.3 mM=>final conc. in the 5 μL assay volume is 2 mM) and substrate (0.1 μM=>final conc. in the 5 μL assay volume is 0.06 μM) in assay buffer and the resulting mixture was incubated for a reaction time of 30 min at 22° C. […]

T1 sequence (Q9BUB5 whole entry, looked up, stated change not applied): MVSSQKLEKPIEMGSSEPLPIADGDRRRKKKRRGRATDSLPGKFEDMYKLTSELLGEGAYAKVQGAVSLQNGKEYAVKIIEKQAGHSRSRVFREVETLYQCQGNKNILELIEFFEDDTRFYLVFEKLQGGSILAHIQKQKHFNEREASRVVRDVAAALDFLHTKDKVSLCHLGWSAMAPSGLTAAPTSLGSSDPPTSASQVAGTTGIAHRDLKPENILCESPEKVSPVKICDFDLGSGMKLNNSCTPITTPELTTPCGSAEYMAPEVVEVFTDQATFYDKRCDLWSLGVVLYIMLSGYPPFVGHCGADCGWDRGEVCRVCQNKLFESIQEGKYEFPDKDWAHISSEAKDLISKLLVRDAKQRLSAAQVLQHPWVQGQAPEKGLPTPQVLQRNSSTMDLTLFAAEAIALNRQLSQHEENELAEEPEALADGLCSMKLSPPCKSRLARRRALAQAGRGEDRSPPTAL

## COc1cc2[nH]ncc2cc1Nc1ncnc2[nH]ncc12 [US9556181, 2]
  IC50: 49 nM
